According to ChEMBL document CHEMBL5046276 (J Med Chem, 2022):
Active and inactive are the calls of the source. No cut-off for these calls is given here.

Columns and labels:
[1] = Toxicity in BALB/c mouse infected with blood stage Plasmodium yoelii assessed as animal death at 60 mg/kg, ip qd for 5 days measured from day 2 post compound treatment; assay type: organism-based; conditions: in vivo, 120 h, time 5 day
[2] = In vivo inhibition of C-terminal glmS fused HDAC1 in Plasmodium falcipuram 3D7 assessed as inhibition of parasite growth incubated for 4 hrs followed by compound washout and replacement with fresh medium with compounds measured after 68 hrs by SYBR Green I staining based fluorescence analysis; assay type: functional, organism-based, Plasmodium falciparum
Plasmodium falciparum [3] = experiment: Antimalarial activity against synchronized Plasmodium falcipuram 3D7 infected in human RBC assessed as irreversible inhibition of parasite growth at schizont stage at 40 nM treated 29 to 41 hpi incubated for 12 hrs followed by compound washout and replacement with fresh medium without compounds and measured after 4 days by flow cytometry; assay type: functional, organism-based
Plasmodium falciparum [4] = experiment: Antimalarial activity against asexual blood stage quinine-resistant Plasmodium falcipuram C2A assessed as parasite growth inhibition incubated for 72 hrs by SYBR Green I staining based fluorescence analysis; assay type: functional, organism-based
Plasmodium falciparum [5] = experiment: Antimalarial activity against synchronized Plasmodium falcipuram 3D7 infected in human RBC assessed as ring stage parasite killing at 40 nM treated […] and incubated for 12 hrs followed by compound washout and replacement with fresh medium without compounds and measured at 50 hrs post infection by Geimsa staining based microscopy; assay type: functional, organism-based
Plasmodium falciparum [6] = experiment: Inhibition of Plasmodium falcipuram recombinant HDAC1 using HDAC-Glo I/II as substrate at 50 to 800 nM preincubated for 90 mins by luminescence based microplate reader analysis; conditions: dose 50-800 nM
[7] = Metabolic stability in mouse liver microsomes assessed as half life at […] incubated for 45 mins in presence of NADPH by LC/MS analysis; assay type: ADME, Microsome; conditions: microsomes, 0.75 h, 10000 µM
Plasmodium falciparum [8] = experiment: In vivo inhibition of C-terminal TY1 fused HDAC1 in Plasmodium falcipuram 3D7 assessed as inhibition of parasite growth by measuring downregulation of RBC invasion-related genes expression level by RNA-seq analysis; assay type: functional, organism-based
[9] = Apparent clearance in BALB/c mouse at 5 mg/kg, ip measured after upto 24 hrs by LC-MS/MS analysis; assay type: ADME, organism-based; conditions: in vivo, read-out: CLz/F (converted)
[10] = Cytotoxicity against HEK293T cells incubated for 72 hrs by CCK-8 assay; conditions: human
Plasmodium berghei = experiment: Antimalarial activity against liver stage transgenic Plasmodium berghei ANKA sporozoites transfected with GFP-Luc infected in BALB/c mouse assessed as reduction in liver stage parasite infection at 30 mg/kg, iv measured for 1 to 4 days post-administration by IVIS spectrum in vivo imaging analysis; assay type: functional, organism-based; conditions: time 1-4 day
Plasmodium falciparum [11] = experiment: Antimalarial activity against asexual blood stage chloroquine-resistant Plasmodium falciparum Dd2 assessed as parasite growth inhibition incubated for 72 hrs by SYBR Green I staining based fluorescence analysis; assay type: functional, organism-based; conditions: Dd2, 72 h
Plasmodium falciparum [12] = experiment: Antimalarial activity against blood stage asynchronous Plasmodium falcipuram 3D7 assessed as suppression of parasite reproduction by measuring parasitemia at 10 nM incubated for 24 hrs followed by compound washout and replacement with fresh medium without compounds and measured after 4 days by flow cytometry; assay type: functional
Plasmodium falciparum [13] = experiment: Inhibition of Plasmodium falcipuram HDAC assessed as effect on parasite histone deacetylation level at 5 to 20 nM incubated for 4 hrs by Western blot analysis; conditions: dose 5-20 nM
Plasmodium falciparum [14] = experiment: In vivo inhibition of C-terminal TY1 fused HDAC2 in Plasmodium falcipuram 3D7 assessed as inhibition of parasite growth incubated for 4 hrs followed by compound washout and replacement with fresh medium with compounds measured after 68 hrs by SYBR Green I staining based fluorescence analysis; assay type: functional, organism-based
[15] = Cytotoxicity against human HepG2 cells incubated for 72 hrs by CCK-8 assay
[16] = Cmax in BALB/c mouse at 5 mg/kg, ip measured upto 24 hrs by LC-MS/MS analysis; assay type: ADME, organism-based; set-up: route intraperitoneal, dose 5 mg/kg, time <=24; conditions: in vivo
[17] = Toxicity in BALB/c mouse infected with blood stage Plasmodium yoelii assessed as animal death at 60 mg/kg, ip qd for 5 days and measured on day 28; assay type: organism-based; conditions: in vivo, 672 h, time 28 day
Plasmodium yoelii = experiment: Antimalarial activity against blood stage Plasmodium yoelii infected in BALB/c mouse assessed as parasite recrudescence by measuring parasitemia at 60 mg/kg, ip qd for 5 days and measured on 11 to 26 days; assay type: functional; conditions: time 11-26 day
[18] = In vivo inhibition of C-terminal TY1 fused HDAC1 in Plasmodium falcipuram 3D7 assessed as inhibition of parasite growth incubated for 4 hrs followed by compound washout and replacement with fresh medium with compounds measured after 68 hrs by SYBR Green I staining based fluorescence analysis; assay type: functional, organism-based, Plasmodium falciparum
[19] = Apparent volume of distribution in BALB/c mouse at 5 mg/kg, ip measured after upto 24 hrs by LC-MS/MS analysis; assay type: ADME, organism-based; conditions: in vivo, read-out: Vz/F
Plasmodium falciparum [20] = experiment: Antimalarial activity against blood stage asynchronous Plasmodium falcipuram 3D7 assessed as parasite growth inhibition by measuring parasitemia at 10 to 100 nM incubated for 12 to 24 hrs by flow cytometry; assay type: functional, organism-based; conditions: dose 10-100 nM, time 12-24 hrs
[21] = Tmax in BALB/c mouse at 5 mg/kg, ip measured after upto 24 hrs by LC-MS/MS analysis; assay type: ADME, organism-based; conditions: in vivo
Plasmodium falciparum [22] = experiment: Antimalarial activity against asexual blood stage chloroquine-resistant Plasmodium falcipuram GB4 assessed as parasite growth inhibition incubated for 72 hrs by SYBR Green I staining based fluorescence analysis; assay type: functional, organism-based; conditions: GB4, 72 h
Plasmodium falciparum [23] = experiment: In vivo inhibition of C-terminal glmS fused HDAC2 in Plasmodium falcipuram 3D7 assessed as inhibition of parasite growth incubated for 4 hrs followed by compound washout and replacement with fresh medium with compounds measured after 68 hrs by SYBR Green I staining based fluorescence analysis; assay type: functional, organism-based
[24] = Toxicity in BALB/c mouse infected with blood stage Plasmodium yoelii assessed as animal death at 30 mg/kg, ip qd for 5 days and measured upto 60 days; assay type: organism-based; conditions: in vivo, 1440 h, time 60 day
Plasmodium falciparum [25] = experiment: Antimalarial activity against blood stage asynchronous Plasmodium falcipuram 3D7 assessed as parasite growth inhibition by measuring parasitemia incubated for 6 to 12 hrs followed by compound washout and replacement with fresh medium without compounds and measured after 4 days by flow cytometry; assay type: functional, organism-based; conditions: dose 10-100 nM, time 6-12 hrs
Plasmodium falciparum [26] = experiment: In vivo inhibition of C-terminal glmS fused HDAC1 in Plasmodium falcipuram 3D7 assessed as inhibition of parasite growth by measuring downregulation of RBC invasion-related genes expression level by RNA-seq analysis; assay type: functional, organism-based
Plasmodium falciparum [27] = experiment: Antimalarial activity against synchronized Plasmodium falcipuram 3D7 infected in human RBC assessed as irreversible inhibition of parasite growth at ring stage at 40 nM treated at 5 to 17 hpi incubated for 12 hrs followed by compound washout and replacement with fresh medium without compounds and measured after 4 days by flow cytometry; assay type: functional, organism-based
Plasmodium falciparum [28] = experiment: Antimalarial activity against asexual blood stage wild-type Plasmodium falciparum 3D7 assessed as parasite growth inhibition incubated for 72 hrs by SYBR Green I staining based fluorescence analysis; assay type: functional, organism-based; conditions: 3D7, 72 h

Structure (SMILES): Cn1cc(CNCC2CCN(c3ncc(C(=O)NO)cn3)CC2)c2ccccc21 [QUISINOSTAT]
- Activity [1]: Toxic
- IC50 [2]: 5.59 nM
- Activity (Plasmodium falciparum [3]): Active
- IC50 (Plasmodium falciparum [4]): 2.52 nM
- Activity (Plasmodium falciparum [5]): Active
- inhibition (Plasmodium falciparum [6]): Active
- t1/2 [7]: 629.7 min
- inhibition (Plasmodium falciparum [8]): Active
- CL/F [9]: 462 mL/min/kg
- IC50 at 72 h [10]: 60 nM
- Activity (Plasmodium berghei): inactive
- IC50 (Plasmodium falciparum [11]): 7.09 nM
- Activity (Plasmodium falciparum [12]): 100%
- Activity (Plasmodium falciparum [13]): Active
- inhibition (Plasmodium falciparum [14]): Active
- IC50 at 72 h [15]: 30 nM
- Cmax [16]: 89 ng/mL
- Activity [17]: Toxic
- Activity (Plasmodium yoelii): 0.05%
- IC50 [18]: 19.1 nM
- Vd/F [19]: 245 L/kg
- Activity (Plasmodium falciparum [20]): Active
- Tmax [21]: 4.8 min
- IC50 (Plasmodium falciparum [22]): 1.75 nM
- inhibition (Plasmodium falciparum [23]): Active
- Activity [24]: Toxic
- Activity (Plasmodium falciparum [25]): Dose dependent effect
- inhibition (Plasmodium falciparum [26]): Active
- Activity (Plasmodium falciparum [27]): Active
- IC50 (Plasmodium falciparum [28]): 4.01 nM
